Measurements as given in article PMC9692523, “Exposure to (Poly)phenol Metabolites after a Fruit and Vegetable Supplement Intake: A Double-Blind, Cross-Over, Randomized Trial” (Nutrients, 2022).

How the values were obtained:
[1] = Urinary excretion of phenolic metabolites over 48 h after one 450 mg capsule of the supplement (UHPLC-ESI-MS/MS); type: in vivo, human; settings: urine, n = 10, mean ± SEM; for Urinary excretion 0 (h): baseline (day before)
Procedure: (§1) This study was designed as a 3-week randomized, double-blind, cross-over clinical trial. Eligible participants were randomized using simple block randomization of 1:1. Once enrolled, subjects received either one 450 mg capsule of the test supplement or one 450 mg capsule of placebo on the first day of the study (Phase I: D1). After three days of sampling, volunteers started a wash-out period of 1 week and were then enrolled for the second test Phase with ingestion of the opposite supplement (Phase II: D1) (Figure 1). The placebo product was 100% maltodextrin, which was (poly)phenol-free.
Urine samples were collected the day before (baseline) and during the 48 h period following the supplementation (T0-T3, T3-T6, T6-T10, T10-T14, T14-T24, T24-T32 and T32-T48) (Figure 2). Urine volumes at each collection period were registered, and samples were aliquoted and stored at −80 °C until further processing.
Then, urine samples were prepared as previously reported by Brindani and colleagues. Briefly, urine samples were defrosted, vortexed, diluted in 0.1% formic acid in water (1:4, v/v) and centrifuged at 12,000 rpm for 5 min. Finally, urine samples were filtered (0.45 µm nylon filter) prior to UHPLC-ESI-MS/MS analysis.
(§2) Plasma and urine samples were analyzed by a UHPLC DIONEX Ultimate 3000 equipped with a triple quadrupole TSQ Vantage (Thermo Fisher Scientific Inc) fitted with a heated ESI (H-ESI) (Thermo Fisher Scientific Inc) probe, as previously reported. Separations were carried out by means of a Kinetex EVO C18 (100 × 2.1 mm) column, 2.6 µm particle size (Phenomenex, Torrance, CA, USA), installed with a pre-column (Phenomenex). Mobile phase A was 0.2% formic acid in water, and mobile phase B was acetonitrile containing 0.2% formic acid. The gradient started with 5% B, and isocratic conditions were maintained for 0.5 min, reaching 95% B after 6.5 min, followed by 1 min at 95%. The starting gradient was then immediately re-established and maintained for 5 min to re-equilibrate the column. The flow rate was 0.4 mL/min, the injection volume was 5 µL and the column temperature was set at 40 °C.
(§3) The applied MS method consisted of the selective determination of each target precursor ion by the acquisition of characteristic product ion in selective reaction monitoring (SRM) mode (Supplemental Table S2). For all the analyses, the spray voltage was set at 3 kV, the vaporizer temperature at 300 °C and the capillary temperature operated at 270 °C. The sheath gas flow was 50 units, and auxiliary gas pressure was set to 10 units. Ultra-high purity argon gas was used for collision-induced dissociation (CID). The S-lens values were defined for each compound based on infusion parameter optimization. Conversely, for those compounds not available for infusion, the S-lens values were set using the values obtained for the chemically closest available standards. Quantification was performed with calibration curves of standards when available or using the most structurally similar compound. Data processing was performed using Xcalibur software (Thermo Scientific Inc., San Jose, CA, USA).
All data were expressed as mean values ± standard deviation (SD) and mean values ± standard error to the mean (SEM) for metabolites in blood and urine samples. PKSolver add-on program in Microsoft Excel was used to determine pharmacokinetic parameters of blood phenolic metabolites, including time to reach the maximum plasma concentration (Tmax, h), maximum plasma concentration (Cmax, nmol/L), area under the curve (AUC0-24, nmol/L·h), and time of presence of metabolites in circulation (Tpres, h). Tpres was calculated by taking the time interval between the first appearance and the last appearance of the considered metabolite. Coefficient of variation (CV) was evaluated for each metabolite and multivariate principal component analysis (PCA) was applied to explore the inter-individual variation in the urinary metabolites among the participants. […]

[2] = Plasma pharmacokinetics of phenolic metabolites after one 450 mg capsule of the supplement (UHPLC-ESI-MS/MS); type: in vivo, human; settings: for Cmax / Tmax / Tpres (time of presence of metabolites in circulation): n = 10, mean ± SEM; for Tpres (time of presence of metabolites in circulation): interval between first and last appearance; for AUC0-24: supplemented volunteers (n = 10), 450 mg capsule, mean ± SEM
Procedure: as §1
On the day of the test (D1), volunteers visited the Research Center after an overnight fast. Blood was collected at T0 to determine baseline levels of plasma phenolic metabolites. Then, volunteers were invited to take the 450 mg capsule of the supplement or the placebo with 250 mL of still water (Figure 2). Additional blood samples were then collected at 1 h (D1, T1), 2 h (D1, T2), 3 h (D1, T3), 4 h (D1, T4), 5 h (D1, T5), 6 h (D1, T6), 8 h (D1, T8), 10 h (D1, T10) and 24 h (D2, T24) after capsule intake. Blood was taken from the basilica vein and centrifuged at 3000 rpm for 10 min at 4 °C. Plasma was immediately extracted and frozen at −80 °C for further analysis.
Plasma samples were then extracted using a solid phase extraction (SPE) method, as previously reported by Castello and colleagues. Briefly, 350 µL of plasma samples was diluted (1:1) with phosphoric acid 4% (v/v). After plate activation, 600 µL of the diluted plasma samples was loaded on a 96 well µ-SPE HLB (Oasis® HLB µElution Plate 30 µm, Waters, Milford, Massachusetts, MA, USA). Samples were washed with 200 µL of water and 200 µL of 0.2% (v/v) acetic acid. Finally, samples were eluted with 60 µL of methanol for UHPLC-ESI-MS/MS analysis.
as §2, §3
All data were expressed as mean values ± standard deviation (SD) and mean values ± standard error to the mean (SEM) for metabolites in blood and urine samples. […]

Structure (SMILES) | Urinary excretion 0 (h) [1] [µg] | Urinary excretion 0–3 (h) [1] [µg] | Urinary excretion 3–6 (h) [1] [µg] | Urinary excretion 6–10 (h) [1] [µg] | Urinary excretion 10–14 (h) [1] [µg] | Urinary excretion 14–24 (h) [1] [µg] | Urinary excretion 24–32 (h) [1] [µg] | Urinary excretion 32–48 (h) [1] [µg] | Urinary excretion Total (0–48 h) [1] [µg] | Cmax [2] [nM] | Tmax [2] [h] | Tpres (time of presence of metabolites in circulation) [2] [h] | AUC0-24 [2] [µM·h] | Time of first plasma concentration (absorption) peak ([2]; after supplement intake) [h]
O=C1CCC(Cc2cccc(O[C@@H]3O[C@H](C(=O)O)[C@@H](O)[C@H](O)[C@H]3O)c2)O1 (stereo partly drawn) [compound 17] | 15.01 ± 15.01 | 15.42 ± 15.42 | 196.48 ± 138.99 | 169.91 ± 105.95 | 65.96 ± 36.27 | 468.44 ± 330.34 | 81.71 ± 28.26 | 16.56 ± 16.56 | 1029.49 ± 394.77 | 6.34 ± 1.66 | 5.88 ± 0.95 | 7.13 ± 2.27 | 0.022 ± 0.00641 | 
COc1cc(CCC(=O)O)ccc1OS(=O)(=O)O [compound 46] |  |  |  |  |  |  |  |  |  | 169 ± 156 | 6.43 ± 2.97 | 7.14 ± 3.61 | 0.55828 ± 0.53121 | 
O=C(O)[C@H]1O[C@@H](Oc2ccc3c(c2)oc(=O)c2ccc(O)cc23)[C@H](O)[C@@H](O)[C@@H]1O [compound 43] |  |  |  | 6.91 ± 6.55 | 5.49 ± 5.21 | 36.41 ± 34.54 | 14.38 ± 9.83 | 5.33 ± 5.05 | 68.53 ± 55.19 |  |  |  |  | 
O=C(O)c1ccc(O)c(OC2OC(C(=O)O)C(O)C(O)C2O)c1 (stereo not drawn) [compound 35] | 1.13 ± 1.13 | 14.20 ± 4.88 | 24.68 ± 5.82 | 12.53 ± 4.10 | 3.10 ± 1.12 | 4.51 ± 1.34 |  |  | 60.16 ± 9.86 |  |  |  |  | 
COc1cc(C(=O)O)cc(OC)c1O.COc1cc(C(=O)O)cc(OC)c1O [compound 39] | 0.71 ± 0.46 | 8.71 ± 8.71 | 3.89 ± 3.81 | 3.57 ± 2.82 | 1.42 ± 1.38 | 3.63 ± 2.95 | 3.33 ± 2.94 | 8.73 ± 8.35 | 33.92 ± 30.72 |  |  |  |  | 
O=C1CCC(Cc2cc(O)cc(OC3OC(C(=O)O)C(O)C(O)C3O)c2)O1 (stereo not drawn) [compound 10] | 5.34 ± 5.34 | 0.00 ± 0.00 | 101.70 ± 51.36 | 316.86 ± 132.04 | 199.53 ± 88.98 | 624.93 ± 108.36 | 281.58 ± 60.75 | 65.29 ± 25.62 | 1595.23 ± 260.71 | 15 ± 5.61 | 12.78 ± 2.85 | 14.44 ± 2.42 | 0.12555 ± 0.04768 | 
COc1ccc(C2CC(=O)c3c(O)cc(OC4OC(C(=O)O)C(O)C(O)C4O)cc3O2)cc1O (stereo not drawn) [compound 28] | 14.48 ± 5.94 | 4.02 ± 2.90 | 20.07 ± 4.27 | 28.56 ± 5.46 | 9.57 ± 2.19 | 30.72 ± 8.04 | 19.07 ± 5.57 | 22.33 ± 5.83 | 148.81 ± 14.88 | 19.9 ± 2.31 | 7.11 ± 0.90 | 17.83 ± 1.54 | 0.15205 ± 0.02784 | 
O=C1CCC(Cc2cccc(OS(=O)(=O)O)c2)O1 (stereo not drawn) [compound 23] | 41.07 ± 30.35 | 4.29 ± 2.19 | 52.98 ± 22.54 | 175.24 ± 98.80 | 76.01 ± 39.48 | 345.14 ± 198.47 | 100.92 ± 46.88 | 34.61 ± 16.03 | 830.26 ± 275.43 | 2.15 ± 0.48 | 8.22 ± 2.13 | 9.33 ± 2.45 | 0.01011 ± 0.00389 | 
O=C(O)CNC(=O)c1ccc(O)cc1 [compound 47] |  |  |  |  |  |  |  |  |  | 816 ± 269 | 6.50 ± 1.28 | 21.55 ± 0.74 | 5.71944 ± 1.32787 | 
O=C(O)[C@H]1O[C@@H](Oc2ccc3c(c2)oc(=O)c2ccccc23)[C@H](O)[C@@H](O)[C@@H]1O [compound 44] |  |  |  | 5.31 ± 5.04 | 39.56 ± 37.53 | 144.45 ± 90.90 | 74.85 ± 48.79 | 30.99 ± 29.40 | 295.17 ± 185.26 |  |  |  |  | 
O=C(O)c1ccc(O)c(OS(=O)(=O)O)c1 [compound 45] |  |  |  |  |  |  |  |  |  | 43.6 ± 7.34 | 2.10 ± 0.46 | 13.45 ± 2.80 | 0.19606 ± 0.03272 | 1.38 ± 0.18
